Measured values from PMC9769880, “Diverse Sensory Repertoire of Paralogous Chemoreceptors Tlp2, Tlp3, and Tlp4 in Campylobacter jejuni” (Microbiology Spectrum, 2022).
Where two headings read alike, the source gives them in different places.

Tests used:
[1] = target: T1, Tlp4 (Campylobacter jejuni, UniProt Q0PBP3); format: binding
Description: (§1) Glycan (>400 monosaccharides or complex glycans) and small molecule arrays containing amino acids and salts were performed as described previously by Day et al. ([67]). Briefly, 1 μg of purified recombinant protein was complexed with anti-His antibody (Cell Signaling Technology) and rabbit anti-mouse/goat anti-rabbit Alexa 555-IgG (Thermo Scientific) at a molar ratio of 1:0.5:0.25 and then incubated on the array for […] in phosphate-buffered saline (PBS). The array slides were scanned at 488/520 nm and analyzed using InnoScan 1100 with MAPIX software. All arrays were performed in triplicate with a total of 12 data points for each glycan tested; the complete data set and MIRAGE (i.e., minimum information regarding a glycomics experiment) results are shown in Tables S3 and S8.
(§2) Table S8 - Supplementary glycan microarray document based on M IRAGE guidelines. D O I:
(§3) Classification Guidelines
(§4) 1. Sample: Glycan Binding Sample
(§5) Origin: Helicobacter pylori SS1; produced as a recombinant His - tagged protein in E.
(§6) The preparation of Tlp2,3, and 4 is explained in the Materials and Methods section:
(§7) Expression and purification of the periplasmic domain of Tlp2,3, and 4.
(§8) Sample Sample is a His Tagged protein containing only the periplasmic receptor domain of the modifications full length Tlp2,3, and 4transmembrane protein.
(§9) Please see Materials and Methods: Tlps 2/3/4 bind to a range of ligands, including […]
(§10) Proteins were complexed with mouse anti- his antibody, with secondary and tertiary AlexaFluor555 antibodies (rabbit anti-mouse, goat anti-rabbit) at a molar ratio of 4:2:1.
(§11) The protein/antibody complex was incubated on ice for 10 mins prior to placing on the Assay protocol array. Arrays were performed with 1 µg of complexed protein incubated on the array for 20 min. Arrays were then washed 3 times in Array PBS (PBS + 2mM MgCl2 + 2mM CaCl2) then dried by centrifugation for 3 min at 300 x g . Scanning was performed us ing an Innopsys InnoScan 1100AL and analyzed using Mapix (Innopsys). Yes/no binding was determined by six positive replicate spots in three replicate experiments. Positive […]
(§12) Glycan Glycans in this study are listed in Table S2 and is a published library in doi:
(§13) Glycans were prepared in one of two ways for printing:
(§14) Glycan 1. Glycans (with IDs in number/letter format; e.g. 1A, 4C, 7K) were sourced modifications commercially from Dextra Laboratories, Elicityl and Carbosythn and were made into glycoamines using the protocol published in Day et al 2009 (doi:
(§15) Glycan arrays: We only use glycan arrays as a yes/no binding tool. Due to this we look only at binding that is unambiguously above background vs lack of binding above background. Average background + 3x standard deviation of the background of 20 sets of 4 spots of DMF:DMSO only spots is applied to determine if binding observed is […]
(§16) Only spots with values equal to or greater than this value were considered as binding from data of any tested slide. These values are slide […]
(§17) Data Small molecule arrays: We only use amino acid arrays as a yes/no binding tool. Due interpretation to this we look only at binding that is unambiguously above background vs lack of binding above background. Average background + 3x standard deviation of the background of 6 spots of PBS + 2% glycerol only spots is applied to determine if […]
(§18) Only spots with values equal to or greater than this value were considered as binding from data of any tested slide. These values are slide dependent. […]

[2] = target: T2, Tlp2 (Campylobacter jejuni, UniProt Q0PBZ3); format: binding
Description: as §1, §2, §3, §4, §5, §6, §7, §8, §9, §10, §11, §12, §13, §14, §15, §16, §17, §18

[3] = target: T3, Tlp3 (Campylobacter jejuni, UniProt Q0P864); experiment: biochemical; format: binding
Description: His-tagged proteins (Tlp2, -3, and -4) were prepared as previously described ([11]) DNA segments encoding the periplasmic sensory domains (33 to 286 amino acids) of Tlp2 and (38 to 297 amino acids) of Tlp4 were amplified (see Table S7), ligated into pGEM-T Easy (Promega) and subcloned into pET-19b (Novagen) (see Table S6). Recombinant proteins were expressed in E. coli BL21(DE3) using 1 mM IPTG (isopropyl-β-D-thiogalactopyranoside) and purified using His-select-nickel chromatography as described previously ([8], [11]). […] Protein concentrations were determined using a NanoDrop spectrophotometer (Thermo Fisher).
(§19) Surface plasmon resonance (SPR) experiments were performed as described previously ([10], [11]) with the following modifications. […] All ligands were prepared in PBS (pH 7.2) and serially diluted from 0.2 to 0.0125 mM. A 10-min dissociation period was allocated after the introduction of each analyte. SPR experiments were performed in single-cycle kinetics mode using the BIAcore S200 biosensor system (Cytiva) at 25°C in PBS (pH 7.2) at a flow rate of 30 μL/min. The equilibrium dissociation constant (KD) for each analyte was determined using BIAcore S200 Evaluation software with a report point 4 s after the injection stop to account for the bulk transfer of the small molecule against a large amount of immobilized protein (as shown in Fig. S5).

[4] = target: T1, Tlp4; experiment: biochemical; format: binding
Description: (§20) His-tagged proteins (Tlp2, -3, and -4) were prepared as previously described ([11]) DNA segments encoding the periplasmic sensory domains (33 to 286 amino acids) of Tlp2 and (38 to 297 amino acids) of Tlp4 were amplified (see Table S7), ligated into pGEM-T Easy (Promega) and subcloned into pET-19b (Novagen) (see Table S6). Recombinant proteins were expressed in E. coli BL21(DE3) using 1 mM IPTG (isopropyl-β-D-thiogalactopyranoside) and purified using His-select-nickel chromatography as described previously ([8], [11]). The purity of the proteins was confirmed by SDS-PAGE and Western blot analysis with anti-His antibodies (Bio-Rad). Protein concentrations were determined using a NanoDrop spectrophotometer (Thermo Fisher).
as §19, with “modifications. Briefly, purified proteins were diluted to 0.15 μM in sodium acetate (pH 4.0) and immobilized onto an active flow cell of a CM5 sensor chip with a flow rate of 5 μL/min for 7 min of contact time using a standard amine coupling protocol. Immobilized protein levels for all three proteins ranged from 6028.3 to 9779.3 response units (RU) providing a minimum expected response maximum (RMax) between 20 and 50 RU for the small molecules tested.” for “modifications.”

[5] = target: T2, Tlp2; experiment: biochemical; format: binding
Description: as §20
as §19, with “modifications. Briefly, purified proteins were diluted to 0.15 μM in sodium acetate (pH 4.0) and immobilized onto an active flow cell of a CM5 sensor chip with a flow rate of 5 μL/min for 7 min of contact time using a standard amine coupling protocol. Immobilized protein levels for all three proteins ranged from 6028.3 to 9779.3 response units (RU) providing a minimum expected response maximum (RMax) between 20 and 50 RU for the small molecules tested.” for “modifications.”

[6] = target: T3, Tlp3; experiment: Glycan/small molecule arrays with Tlp3; details: yes/no binding
Description: as §1, §2, §3, §4, §5, §6, §7, §8, §9, §10, §11, §12, §13, §14, §15, §16, §17, §18

[7] = test system: WT Tlp3^LBD; experiment: SPR competition assay (A-B-A inject); format: binding, Campylobacter jejuni; details: 15 seconds after injection-B; glucose 300 µM, fucose 300 μM, malic acid 200 μM
Description: . Competition A-B-A analyses determine the specificity of the potential ligand-binding site preferences of WT Tlp3^LBD. The bound protein is saturated with the first analyte (A), followed by the introduction of a second analyte (B); the assay is designed to show whether a cumulative response is observed after the second analyte (B) is added. A cumulative response indicates two independent binding sites, whereas the lack of a cumulative response indicates a single site where ligands compete for binding, i.e., when analyte A occupies a ligand binding site, analyte B cannot bind. […] All response data were normalized to a 100-Da molecular weight for each analyte, allowing direct comparison of the responses. Both actual RU values and theoretical values are recorded for comparison.
Figure S6. […] A) Injections are […]
at 300 μM for 60 seconds). Final responses units (RU) of injections are recorded (indicated by dashed vertical […]
81 at 15 s econds after injection- B and l fu cose […]
and fucose were compet ed was 4.4 RU ± 0.46. As this value sits be low 5 RU, it indicates direct competition for […]
Final respons es units (RU) of injections ar e re cor ded (indicated […]
As this value sits between
5.07- 13.5 RU, it indicates direct competition for the same site with glucos e replacing some of the bound malic acid during the 60 second injection- B.

[8] = test system: Δtlp2,3,4 triple mutant; format: cell-based; details: compared with the other mutants
[9] = target: Tlp3^LBD D169A (Campylobacter jejuni, UniProt Q0P864, D169A); experiment: biochemical
[10] = target: Tlp3^LBD W151A (Campylobacter jejuni, UniProt Q0P864, W151A); experiment: biochemical
[11] = target: Tlp3^LBD K149A (Campylobacter jejuni, UniProt Q0P864, K149A); experiment: biochemical
[12] = target: Tlp3^LBD D170A (Campylobacter jejuni, UniProt Q0P864); experiment: biochemical
[13] = target: Tlp3^LBD D196A (Campylobacter jejuni, UniProt Q0P864, D196A); experiment: biochemical
[14] = SPR KD, mean ± SD, NB = no binding, read-out: Tlp3 Affinity
[15] = SPR KD, mean ± SD, NB = no binding, read-out: Tlp4 Affinity
[16] = SPR KD, mean ± SD, NB = no binding, read-out: Tlp2 Affinity

T2 sequence (Q0PBZ3 entry or part of it): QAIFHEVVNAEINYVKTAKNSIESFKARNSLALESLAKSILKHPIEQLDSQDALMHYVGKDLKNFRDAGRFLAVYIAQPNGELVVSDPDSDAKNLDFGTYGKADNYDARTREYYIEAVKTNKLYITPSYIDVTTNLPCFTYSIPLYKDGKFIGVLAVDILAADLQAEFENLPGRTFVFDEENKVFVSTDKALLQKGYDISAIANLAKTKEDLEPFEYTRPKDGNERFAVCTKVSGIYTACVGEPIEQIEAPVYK
T1 sequence (Q0PBP3 entry or part of it): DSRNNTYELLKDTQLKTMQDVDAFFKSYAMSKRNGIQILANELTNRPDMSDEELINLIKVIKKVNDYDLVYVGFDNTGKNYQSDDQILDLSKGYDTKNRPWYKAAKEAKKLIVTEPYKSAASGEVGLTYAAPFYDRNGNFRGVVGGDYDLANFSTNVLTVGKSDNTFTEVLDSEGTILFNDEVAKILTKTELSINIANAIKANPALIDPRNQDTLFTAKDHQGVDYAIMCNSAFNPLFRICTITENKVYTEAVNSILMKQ
T3 sequence (Q0P864 entry or part of it): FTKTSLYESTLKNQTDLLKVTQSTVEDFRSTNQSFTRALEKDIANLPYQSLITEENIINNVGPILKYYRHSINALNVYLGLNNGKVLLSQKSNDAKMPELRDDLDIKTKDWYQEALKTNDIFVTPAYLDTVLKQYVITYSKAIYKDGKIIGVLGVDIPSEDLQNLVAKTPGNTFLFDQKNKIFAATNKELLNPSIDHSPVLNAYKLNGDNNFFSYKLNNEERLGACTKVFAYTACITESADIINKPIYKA
Tlp3^LBD W151A, sequence (Q0P864 41-290 W151A): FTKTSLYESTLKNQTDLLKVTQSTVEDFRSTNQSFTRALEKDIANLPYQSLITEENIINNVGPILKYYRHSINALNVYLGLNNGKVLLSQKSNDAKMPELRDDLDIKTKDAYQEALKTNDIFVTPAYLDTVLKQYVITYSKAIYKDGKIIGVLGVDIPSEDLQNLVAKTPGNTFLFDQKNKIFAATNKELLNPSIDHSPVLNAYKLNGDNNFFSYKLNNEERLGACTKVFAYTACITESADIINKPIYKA
Tlp3^LBD K149A, sequence (Q0P864 41-290 K149A): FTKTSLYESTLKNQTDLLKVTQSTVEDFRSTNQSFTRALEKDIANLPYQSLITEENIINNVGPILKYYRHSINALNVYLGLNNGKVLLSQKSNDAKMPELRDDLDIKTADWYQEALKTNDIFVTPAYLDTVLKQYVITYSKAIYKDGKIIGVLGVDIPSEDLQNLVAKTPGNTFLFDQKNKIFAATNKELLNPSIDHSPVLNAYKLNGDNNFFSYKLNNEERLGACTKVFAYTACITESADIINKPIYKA
Tlp3^LBD D170A, sequence (Q0P864 41-290 T170A): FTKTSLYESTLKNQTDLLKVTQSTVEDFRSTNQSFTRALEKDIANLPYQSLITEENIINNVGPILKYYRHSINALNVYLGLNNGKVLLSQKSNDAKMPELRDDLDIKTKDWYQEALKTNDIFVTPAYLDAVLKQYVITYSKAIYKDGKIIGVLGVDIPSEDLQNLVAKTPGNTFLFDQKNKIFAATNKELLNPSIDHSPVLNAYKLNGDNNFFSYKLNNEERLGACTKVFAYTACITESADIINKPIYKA
Tlp3^LBD D196A, sequence (Q0P864 41-290 D196A): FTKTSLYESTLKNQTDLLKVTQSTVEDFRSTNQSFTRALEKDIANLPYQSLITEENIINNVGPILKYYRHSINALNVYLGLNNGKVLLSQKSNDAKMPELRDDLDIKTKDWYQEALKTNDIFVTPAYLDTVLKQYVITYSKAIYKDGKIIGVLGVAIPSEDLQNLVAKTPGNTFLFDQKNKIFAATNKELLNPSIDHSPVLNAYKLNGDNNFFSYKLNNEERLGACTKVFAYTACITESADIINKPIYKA
Tlp3^LBD D169A, sequence (Q0P864 41-290 D169A): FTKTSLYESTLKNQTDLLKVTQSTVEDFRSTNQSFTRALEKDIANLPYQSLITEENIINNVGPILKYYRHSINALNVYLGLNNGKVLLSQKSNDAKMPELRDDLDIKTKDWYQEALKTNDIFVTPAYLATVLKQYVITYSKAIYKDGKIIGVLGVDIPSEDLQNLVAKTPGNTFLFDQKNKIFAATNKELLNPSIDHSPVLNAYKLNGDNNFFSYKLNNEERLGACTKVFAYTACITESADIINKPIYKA

Compound | binding to Tlp4 on glycan/small molecule array ([1]; yes/no binding) | binding to Tlp2 on glycan/small molecule array ([2]; yes/no binding) | Kd [3, 14] [µM] | Kd [4, 15] [µM] | Kd [5, 16] [µM] | binding to Tlp4 on glycan/small molecule array [1] | binding to Tlp2 on glycan/small molecule array [2] | binding to Tlp3 on glycan/small molecule array [6] | Kd [4] [µM] | Kd [5] [µM] | also measured
N[C@@H](CO)C(=O)O [Serine] | bound | bound | > 200 | 14.3 ± 3.2 | 6.9 ± 2.4 | – | – | – | – | – | –
N[C@@H](CC(=O)O)C(=O)O [Aspartate] | – | – | – | – | – | bound | bound | bind specifically | 75.3 ± 8.1 | 95.4 ± 0.9 | –
O=C(O)CC(O)C(=O)O (centres unmarked) [Malic acid] | – | – | – | > 10000 | > 10000 | – | – | – | – | – | SPR response of single analyte [7]: 13.5 RU
NC(=O)C[C@H](N)C(=O)O [Asparagine] | bound | bound | > 200 | 45.1 ± 6.1 | 12.8 ± 5.1 | – | – | – | – | – | –
O=C[C@H](O)[C@@H](O)[C@@H](O)[C@H](O)CO [Galactose] | – | – | – | – | – | interacted | interacted | interacted | 18.3 ± 2.1 | 17.2 ± 1.3 | –
c1ncc2nc[nH]c2n1 [Purine] | bound | bound | – | 1.2 ± 0.7 | 5.4 ± 1.1 | – | – | bind specifically | – | – | migration toward ligand, Δtlp2,3,4 triple mutant [8]: greatest reduction in migration; Kd [3]: 37.2 ± 17.4 µM; Kd [9]: 15.7 ± 6.6 µM; Kd [10]: 36.1 ± 15.7 µM; Kd [11]: 41.9 ± 24 µM; Kd [12]: 20.6 ± 4 µM; Kd [13]: 35.8 ± 1.5 µM
